Literature values in patent US20080004230A1, “SAM Riboswitch and Uses Thereof” (priority 2006, published 2008).
Like-named read-outs stand apart in the source and are kept apart here. One block for each compound: values may come before it.

Experiments:
[1] = biological target: SAM-I riboswitch RNA (yitJ homolog from B. subtilis); conditions: read-out: binding affinity of the analog for the riboswitch RNA
SAM-I riboswitch = conditions: binding preference of the riboswitch, SAM relative to SAH

- Kd [1]: 0.4 µM
Compound: Nc1ncnc2c1ncn2[C@@H]1O[C@H](CSCC[C@H](N)C(=O)O)[C@@H](O)[C@H]1O [SAH, S-adenosylhomocysteine]

Compound: C[S+](CC[C@H](N)C(=O)O)C[C@H]1O[C@@H](n2cnc3c(N)ncnc32)[C@H](O)[C@@H]1O (stereo partly drawn) [SAM, S-adenosylmethionine]
- preference for SAM over SAH (SAM-I riboswitch): 100 fold

- Kd ([1]; analog with one less side chain methylene group): ~30 µM
Compound: Nc1ncnc2c1ncn2[C@@H]1O[C@H](CSC[C@H](N)C(=O)O)[C@@H](O)[C@H]1O [SAC, S-adenosylcysteine]
